Assay results published in patent USRE37495E1, “Substituted 1-arylpyrazoles” (Bayer Aktiengesellschaft, priority 1993, dated 2002).

Assays:
Type in all cases: in vivo
[1] = tested on: Blattella germanica or Periplaneta americana; assay: Cockroach test; settings: after 6 hours, filter paper
Description: Test animals: Blattella germanica or Periplaneta americana
(§1) 35 parts by weight of ethylene glycol monomethyl ether
(§2) 35 parts by weight of nonylphenol polyglycol ether
(§3) To produce a suitable formulation, three parts by weight of active compound are mixed with seven parts of the abovementioned solvent/emulsifier mixture, and the emulsion concentrate thus obtained is diluted with water to the particular desired concentration.
2 ml of this preparation of active compound are pipetted onto filter paper discs (φ9.5 cm) located in Petri dishes of a suitable size. After the filter paper discs have dried, 5 test animals (Blattella germanica or Periplaneta americana) are introduced into the Petri dish, which is covered.
After 6 hours, the effectiveness of the preparation of active compound is determined. The effectiveness is expressed in %. 100% means that all cockroaches have been killed; 0% means that none of the cockroaches have been killed.

[2] = tested on: Phaedon cochleariae larvae; assay: Critical concentration test/root-systemic action, Phaedon; settings: 2.5 ppm active compound in soil, leaves infested after 7 days, evaluated after a further 2 days
Description: Critical Concentration Test/Root-Systemic Action.
Test insect: Phaedon cochleariae larvae
(§4) Solvent: 3 parts by weight of acetone
(§5) Emulsifier: 1 part by weight of alkylaryl polyglycol ether
(§6) To produce a suitable preparation of active compound, 1 part by weight of active compound is mixed with the stated amount of solvent, the stated amount of emulsifier is added and the concentrate is diluted with water to the desired concentration.
(§7) The preparation of active compound is intimately mixed with soil. The concentration of the active compound in the preparation is of practically no importance, only the amount by weight of active compound per unit volume of soil, which is given in ppm (=mg/l), being decisive. The treated soil is transferred into pots and these are planted with cabbage (Brassica oleracea). The active compound can in this way be taken up from the soil by the roots of the plants and be transferred into the leaves.
(§8) After a further 2 days, the evaluation is made by counting or estimating the dead animals. The root-systemic action of the active compound is deduced from the mortality figures. It is 100% if all test animals have been killed and 0% if just as many test insects are still alive as in the case of the untreated control.

Lucilia cuprina larvae = assay: Blowfly larvae test; settings: after 24 hours
Description: Test animals: Lucilia cuprina larvae
35 parts by weight of ethylene glcyol monomethyl ether
as §2
To produce a suitable preparation of active compound, three parts by weight of active compound are mixed with seven parts by weight of the abovementioned mixture and the emulsion concentrate thus obtained is diluted with water to the particular desired concentration.
About 20 Lucilia cuprina res. larvae are introduced into a test tube which contains approx. 1 cm^3 of horse meat and 0.5 ml of the preparation of active compound. After 24 hours, the effectiveness of the preparation of active compound is determined. 100% means that all blowfly larvae have been killed; 0% means that none of the blowfly larvae have been killed.

[3] = tested on: peach aphid (Myzus persicae); assay: Myzus test (leaf dip); settings: concentration of active compound 0.1%, after one day, cabbage leaves dipped
Description: (§9) Solvent: 7 parts by weight of dimethylformamide
as §5
(§10) To produce a suitable preparation of active compound, 1 part by weight of active compound is mixed with the stated amount of solvent and the stated amount of emulsifier, and the concentrate is diluted with water to the desired concentration.
Cabbage leaves (Brassica oleracea) which are heavily infested with the peach aphid (Myzus persicae) are treated by being dipped into the preparation of active compound of the desired concentration.
(§11) After the specified period of time, the destruction in % is determined. 100% means that all the aphids have been killed; 0% means that none of the aphids have been killed.

[4] = tested on: black bean aphid (Aphis fabae); assay: Aphis test (systemic action); settings: concentration of active compound 0.02%, after four days, bean plants watered (systemic)
Description: Aphis Test (Systemic Action)
as §9, §5, §10
Bean plants (Vicia faba) which are heavily infested with the black bean aphid (Aphis fabae) are each watered with 20 ml of preparation of active compound of the desired concentration in such a way that the preparation of active compound penetrates into the soil without wetting the shoot. The active compound is taken up by the roots and passes to the shoot.
as §11

Myzus persicae = assay: Critical concentration test/root-systemic action, Myzus; settings: 20 ppm active compound in soil, leaves infested after 7 days, evaluated after a further 2 days
Description: Critical Concentration Test/Root-Systemic Action
Test insect: Myzus persicae
as §4, §5, §6, §7, §8

[5] = tested on: Musca domestica, strain WHO (N); assay: Fly test; settings: concentration of active compound 1 ppm, after 6 hours, filter paper
Description: Test animals: Musca domestica, strain WHO (N)
as §1, §2, §3
2 ml of this preparation of active compound are pipetted onto filter paper discs (φ9.5 cm) located in Petri dishes of a suitable size. After the filter paper discs have dried, 25 test animals are introduced into the Petri dish, which is covered.
After 6 hours, the effectiveness of the preparation of active compound is determined. The effectiveness is expressed in %. 100% means that all flies have been killed; 0% means that none of the flies have been killed.

[6] = tested on: All stages (eggs, larvae, pupae and adults) of Ctenocephalides felis; assay: Flea in-vitro test (all development stages); settings: active compound concentration 10% in blood meal
Description: Flea In-Vitro Test (All Development Stages)
Test subject: All stages (eggs, larvae, pupae and adults) of Ctenocephalides felis.
Blood meal is dried overnight in a shallow dish at approximately 70° C. and then screened using a mesh size of 0.63 mm.
1.8 g portions of this prepared blood meal are transferred into plastic Petri dishes of φ9.8 cm.
Using an Eppendorf pipette, 0.2 ml of substance are placed on the 1.8 g of blood meal (dilution factor 1:10).
That is to say, at a use concentration of 1 ppm, the aqueous solution must have a concentration of 10 ppm. The solution is distributed dropwise over the entire surface of-the blood meal.
These prepared dishes are allowed to dry overnight. Using a suitable device, the substance, which is now in the form of dried lumps of blood meal, is crushed and distributed uniformly in the Petri dish by rotating movements. A spatula-full of sieved flea eggs (which are obtained from artificially infected cats) is now added to these prepared test dishes. The dish is sealed with Parafilm and shaken vigorously.
Incubation is effected at 25° C. and the relative atmospheric humidity of 85%. At certain intervals, the dishes are examined for development stages of fleas.
Test criteria: The criteria used for the in-vitro activity of a substance is the inhibition of flea development or a standstill of the development before the adult stage is reached. […]

Question: What does the source list for Cc1nn(-c2c(Cl)cc(C(F)(F)F)cc2Cl)c(N)c1SC(C)(F)F [Example 1, 5-amino-3-methyl-4-(1,1-difluoroethylthio)-1-(2,6-dichloro-4-trifluoromethylphenyl)-pyrazole]?
Answer: destruction ([1]; concentration of active compound >10 ppm): 100%; degree of destruction [2]: 100%

Question: With CC(F)(F)Sc1cnn(-c2c(Cl)cc(C(F)(F)F)cc2NN)c1N [Example 33, 5-amino-4-(1,1-difluoroethylthio)-1-(2-chloro-4-trifluoromethyl-6-hydrazinophenyl)-pyrazole] as the compound, how does the destructive activity (Lucilia cuprina larvae; concentration of active compound ≧300 ppm) read?
Answer: 100%

Question: And the degree of destruction [2]?
Answer: 100%

Question: For N#Cc1nn(-c2c(Cl)cc(C(F)(F)F)cc2Cl)c(N)c1[S+]([O-])C(F)(F)F (stereo not drawn) [prior art], which degree of destruction [3] is on record?
Answer: 0%

Question: And the destructive activity (Lucilia cuprina larvae; concentration of active compound 1000 ppm)?
Answer: 100%

Question: What about the degree of destruction [4] of the same compound?
Answer: 0%

Question: And the degree of destruction (Myzus persicae)?
Answer: 0%

Question: What about the destruction [5] of the same compound?
Answer: < 100%

Question: What about the degree of destruction ([1]; concentration of active compound 10 ppm) of the same compound?
Answer: < 100%

Question: And the degree of destruction [2]?
Answer: 0%

Question: And the destruction [6]?
Answer: 0%
